Test system: MV-4-11 cells
Assay: Gene expression microarray analysis (Affymetrix PrimeView) and GSEA
Type: cell-based, human
Conditions: ProbeSet 11754607_s_at; LIST B

In the case of `Nc1ncn([C@@H]2O[C@H](CO)[C@@H](O)[C@H]2O)c(=O)n1` [azacitidine], the “RFU, HSP90B1 /// MIR3652” value is reported as 2647.82 RFU.

From article PMC5218480 (PLoS ONE, 2017)
